# PMC9176816, “A rapid and sensitive assay for quantifying the activity of both aerobic and anaerobic ribonucleotide reductases acting upon any or all substrates” (PLoS ONE, 2022)
# Tests used:
# [1] = biological target: T1, E. coli class Ia RNR (EcRNR; NrdA/NrdB) (Escherichia coli, UniProt P00452); experiment: LC-MS/MS of dCDP, dUDP, dADP, dGDP formation; assay type: biochemical; conditions: four substrates (CDP 70, UDP 50, GDP 200, ADP 110 μM), 3 mM ATP, 20 μM dATP, remaining activity, specificity effector, pH 7.6, 37 °C
# T1 construct: both subunits N-terminally His-tagged (tags kept), codon-optimized pET30(a), E. coli T7 Express; NrdA 85774 Da, NrdB 44528 Da; alpha2 and beta2 dimers; with Ribonucleoside-diphosphate reductase 1 subunit beta
# T1 sequence (P00452 1-761): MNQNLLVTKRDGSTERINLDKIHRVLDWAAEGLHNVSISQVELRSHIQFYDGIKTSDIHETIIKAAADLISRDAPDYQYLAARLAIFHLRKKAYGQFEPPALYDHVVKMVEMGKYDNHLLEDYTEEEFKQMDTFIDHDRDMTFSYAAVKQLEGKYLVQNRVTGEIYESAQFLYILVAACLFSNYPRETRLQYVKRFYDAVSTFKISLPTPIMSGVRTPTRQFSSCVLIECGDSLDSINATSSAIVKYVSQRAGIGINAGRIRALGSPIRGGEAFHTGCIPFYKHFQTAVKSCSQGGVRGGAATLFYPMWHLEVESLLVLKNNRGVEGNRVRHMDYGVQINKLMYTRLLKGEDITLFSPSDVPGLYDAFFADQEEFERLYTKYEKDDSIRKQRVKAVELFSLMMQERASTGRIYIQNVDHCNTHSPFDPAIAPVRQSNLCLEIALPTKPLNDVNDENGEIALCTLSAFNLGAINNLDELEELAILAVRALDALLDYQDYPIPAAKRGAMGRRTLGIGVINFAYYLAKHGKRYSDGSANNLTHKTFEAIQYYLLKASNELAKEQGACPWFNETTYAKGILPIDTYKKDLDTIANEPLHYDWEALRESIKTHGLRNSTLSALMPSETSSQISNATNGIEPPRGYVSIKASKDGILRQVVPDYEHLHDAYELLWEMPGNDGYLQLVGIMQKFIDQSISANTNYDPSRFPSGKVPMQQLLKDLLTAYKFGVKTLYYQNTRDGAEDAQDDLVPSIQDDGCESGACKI
# T1 sequence (P69924 2-376 partner): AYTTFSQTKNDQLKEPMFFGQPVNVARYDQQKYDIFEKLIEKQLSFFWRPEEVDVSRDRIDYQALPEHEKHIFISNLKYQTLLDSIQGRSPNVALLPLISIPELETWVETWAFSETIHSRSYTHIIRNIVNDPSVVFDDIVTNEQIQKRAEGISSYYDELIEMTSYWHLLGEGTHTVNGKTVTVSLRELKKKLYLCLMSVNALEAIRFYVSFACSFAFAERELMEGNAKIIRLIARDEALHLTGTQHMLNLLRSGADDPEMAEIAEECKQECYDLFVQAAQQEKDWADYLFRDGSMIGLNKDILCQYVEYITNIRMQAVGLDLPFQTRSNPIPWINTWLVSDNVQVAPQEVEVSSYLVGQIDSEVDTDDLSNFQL
# [2] = biological target: T1, E. coli class Ia RNR (EcRNR; NrdA/NrdB); experiment: LC-MS/MS of dCDP formation; assay type: biochemical; conditions: relative to 3 mM ATP; 1 mM CDP, dATP printed as 0.175 μM and 175 μM, NrdA 0.1 μM, NrdB 0.5 μM, Trx/TrxR/NADPH, Mg, pH 7.6, 37 °C; allosteric inhibitor
structure (smiles),measurement,setting,value
Cc1cn([C@H]2C[C@H](O)[C@@H](COP(=O)(O)OP(=O)(O)OP(=O)(O)O)O2)c(=O)[nH]c1=O [TTP],% of initial activity at 1 mM,[1]; 100 μM dGTP present,27%
Nc1ncnc2c1ncn2[C@H]1C[C@H](O)[C@@H](COP(=O)(O)OP(=O)(O)OP(=O)(O)O)O1 [dATP],% inactivation,[2],99%
Nc1nc2c(ncn2[C@H]2C[C@H](O)[C@@H](COP(=O)(O)OP(=O)(O)OP(=O)(O)O)O2)c(=O)[nH]1 [dGTP],% of initial activity at 1 mM,[1]; 250 μM TTP present,50%
